Data on 1 compound can be found in EP0385952A2, “Use of a naphthalenmethanamino derivative as antiinflammatory agent and pharmaceutical compositions containing it” (SANDOZ AG, priority 1989, dated 1990).

Where two headings read alike, the source gives them in different places. Marks after values point to notes of the source that are not given here. Bounds are passed on as bounds.

Assay [1] concerns Peritoneal exudate cells of NMRI mice (macrophage population). The assay is described as follows: TPA-induced prostaglandin E₂ (PGE₂) release. In kind it is cell-based. Particulars: Mus musculus, TPA 20 ng/ml, 1h, read-out: IC₅₀ for the inhibition of TPA-induced PGE₂ release. The procedure:
Peritoneal exudate cells of NMRI mice (strain NMRI) pretreated with 1.5 ml thioglycollate ip 3 days previously are harvested by peritoneal lavage, washed in phosphate-buffered saline (PBS without Ca⁺⁺ and Mg⁺⁺) and resuspended in DMEM medium supplemented with 10 % fetal calf serum (FCS). 1x10⁶ cells in 1 ml are placed into wells of Costar-24 tissue culture plates and cells are allowed to adhere for 24 hours at 37°C and 5 % CO₂. Cells are then washed twice with PBS and the remaining, more than 95 % pure macrophage population is stimulated with 12-O-tetradecanoylphorbol-13-acetate (TPA) (20 ng/ml, 1h) in DMEM medium without FCS. Conditioned media are centrifuged and PGE₂ levels are determined using a ¹²⁵I radioimmunoassay. Samples are assayed in duplicate. Inhibition of PGE₂ release by test compounds is calculated as percent inhibition compared to the controls.

Assay [2] has as its system Macrophages isolated from the bone marrow of mice. The assay is described as follows: Inhibition of Con A-stimulated plasminogen activator release. In kind it is cell-based. The settings on record: Mus musculus, Macrophage; Con A 100 µg/ml, 24 hours; read-out: IC₅₀, Con A-stimulated plasminogen activator release. As to the method: Macrophages 10 to 14 days old isolated from the bone marrow of mice are incubated in monolayers with the test compound in the presence of Concanavalin A (Con A) (100 µg/ml) as soluble stimulant. After 24 hours the cell-free medium is collected and macrophage activation is investigated biochemically as the extent of plasminogen activator release, assayed photometrically as the plasminogen-dependent amidolysis of D-Val-Phe-Lys-4-nitroanilide according to the principles described in J.C. Drapier et al., Biochemie 61 (1979) 463-471. Cell viability is assayed by measurement of lactate dehydrogenase release according to the method of H.U. Bergmeyer and E. Bernt, Methoden der Enzymatischen Analyse, 3. Auflage, Verlag Chemie (1974) 612-615, adapted as a kinetic assay using microtiter plates. All cultures are checked microscopically for qualitative morphological modification.

In another assay the test system is human neutrophils. The assay is described as follows: Zymosan-stimulated superoxide release. In kind it is cell-based. Particulars: Neutrophil, read-out: IC₅₀ for zymosan-stimulated superoxide release.
Assay [3] concerns NMRI mice. The assay is described as follows: Arachidonic acid-induced pinnal swelling in mice (irritant contact dermatitis, 2.1.1.). The settings on record: prophylactic, epicutaneous, pinnal weight. Format: in vivo. As to the method: (§1) Skin irritation with arachidonic acid or cantharidin is often used to experimentally induce inflammation in order to evaluate the anti-inflammatory activity of a compound [see e.g. Inflammation 8 (1984) 134-135; 10 (1986) 205-214]. NMRI mice (8 animals per group) receive 10 µl of a 10 % solution of arachidonic acid [J.M. Young et al., J. Invest. Derm. 82 (1986) 367-371] in acetone or, respectively, 0.08 % cantharidin [K.E. Swingle et al., Arch. Int. Pharmacodyn. Ther. 254 (1981) 168-176] in acetone applied to the medial and lateral surface of the right external ear. Treatment is performed either prophylactically 30 minutes before irritation (arachidonic acid) or, respectively, either simultaneously with the application of irritant solution or therapeutically 20 minutes after irritation (cantharidin), by a single epicutaneous application of the test compound dissolved in a mixture of N,N-dimethylacetamide, acetone and alcohol (2:2:4). The evaluation of the test group is effected by comparison with a control group of animals having received on the right ear lobe only the carrier substance or the irritant solution. The animals are killed 1.5 hours (arachidonic acid) or, respectively, 17 hours (cantharidin) after application of the irritant and efficacy in assessed by determination of the differences in auricular weight. Differences in weights (D) of right (involved) and left (uninvolved) pinnae of animals treated with test compound and arachidonic acid or cantharidin (T-group) are compared with differences in mice treated with arachidonic acid only or cantharidin only (C-group). Efficacy (%) is calculated according to the equation: [formula]

A further assay deals with human keratinocytes. The assay is described as follows: Inhibition of TPA-stimulated PGE₂ synthesis of human keratinocytes. Format: cell-based. Particulars: Keratinocyte, TPA 100 ng/ml, 24 hours, read-out: IC₅₀, inhibition of TPA-stimulated PGE₂ synthesis. The procedure: Cultures of human keratinocytes are obtained by trypsinisation of neonatal human foreskins. The keratinocyte cultures are grown in a supplemented keratinocyte growth medium (KGM; Clonetics) using culture flasks. Passages 3-5 of 80-90 % confluent keratinocytes are resuspended in KGM at a concentration of 1x10⁵ cells/ml and 0.1 ml are plated into 96 well-microtiter plates in the presence of test compound. For the stimulation of PGE₂ release human keratinocytes or the HACAT human skin keratinocyte cell line [P. Boukamp et al., J. Cell Biol. 106 (1988) 761-771] are grown to confluence in KGM medium and stimulated with TPA (100 ng/ml) for 24 hours. Conditioned media are centrifuged and concentrations of PGE₂ are determined using a ¹²⁵I radioimmunoassay (NEN, Boston, Mass.). Each sample is assayed in duplicate.

Assay [4] has as its system NMRI mice. The assay is described as follows: Cantharidin-induced pinnal swelling in mice (irritant contact dermatitis, 2.1.1.). In kind it is in vivo. Particulars: epicutaneous, pinnal weight. As to the method:
as §1

The next assay relates to HACAT cell line. Nature of the assay: Modulation of keratinocyte gene expression and NAP1/IL-8 protein release. Format: cell-based, human. The settings on record: for inhibition at 10 µM: Homo sapiens, HaCaT, ELISA. As to the method: The HACAT cell line is grown in 200 ml culture flasks in KGM medium (Clonetics) at 0.06 mM Ca until 50 % confluency. Thereafter cells are starved in KBM medium (Clonetics) for 2 days. The resulting preconfluent cells are then stimulated with αTNF (Genzyme, 500 or 1000 U/ml) or IL-1α (Boehringer, 200 U/ml) obtained from stock solutions and further diluted in KBM medium for the indicated times in the presence of test substance. At the end of the incubation period total cellular RNA is extracted as described above under 1.1.5. 20 µg RNA is run on 1 % formaldehyde agarose gels and transferred onto hybond N filters (Amersham) in a northern capillary transfer using 20xSSC. The filters are then baked for 2 hours and prehybridized for 4 hours. Hybridization (16 hours) and washing are performed at 65°C using oligonucleotide probes for NAP1/IL-8. For control, blots are rehybridised with an actin probe (Oncor). Concentrations of NAP1/IL-8 in the supernatants of the keratinocyte cultures are determined using a solid phase double ligand ELISA.
A general note: In an ELISA, binding on a coated surface is turned into a signal by an enzyme label.

For the compound `CN(C/C=C/c1ccc(O)cc1)Cc1cccc2ccccc12` [compound of the invention, (E)-N-methyl-N-[3-(4-hydroxyphenyl)-2-propenyl]-1-naphthalene-methanamine], the IC50 was 1000 to 3000 nM in assay [1], 1800 nM in assay [2], over 100000 nM in the assay on human neutrophils and 1000 to 3000 nM with human keratinocytes. For the same compound, the “Efficacy (%)” value is 33** % with NMRI mice [3] (test concentration 1.2 %); 48*** % in the assay with NMRI mice [3] (test concentration 3.6 %); 26% in the assay with NMRI mice [4] (simultaneous, test concentration 1.2 %); 52** % with NMRI mice [4] (simultaneous, test concentration 3.6 %); 25% in the assay with NMRI mice [4] (therapeutic, test concentration 1.2 %); 50** % with NMRI mice [4] (therapeutic, test concentration 3.6 %). The figures for the inhibition at 10 µM in the assay on HACAT cell line (read-out: inhibition of IL-1α-stimulated release of NAP1/IL-8) and in the assay on HACAT cell line (read-out: inhibition of αTNF-stimulated release of NAP1/IL-8) were 40% and 90%, respectively. The “αTNF-induced NAP1/IL-8 mRNA accumulation decreased to” value in the assay with HACAT cell line (remaining level, 20.0 µM) came to 60%.
